The term MIC denotes the smallest concentration in the dilution series that meets the test's criterion for growth inhibition.

Here are results for 17 molecules from ChEMBL document CHEMBL1147414, “Synthesis of galactopyranosyl amino alcohols as a new class of antitubercular and antifungal agents” (2004).

In brackets after ≈: the same amount, converted by molar mass.

Test [1] concerns Mycobacterium tuberculosis. Nature of the test: In vito growth of Mycobacterium tuberculosis BC-248 strain after 6 weeks; - indicates no growth. The class given is functional, organism-based.
Test [2] deals with Mycobacterium tuberculosis. Description: In vito growth of Mycobacterium tuberculosis BC-243 strain after 6 weeks; - indicates no growth. It counts as functional, organism-based.
Test [3] relates to Mycobacterium tuberculosis. Description: In vito growth of Mycobacterium tuberculosis BC-426 strain after 6 weeks; - indicates no growth. It counts as functional, organism-based.
For test [4], the system named is Mycobacterium tuberculosis. Nature of the test: In vito growth of Mycobacterium tuberculosis VA-101 strain after 6 weeks; […] colonies. The class given is functional, organism-based.
For test [5], the system named is Mycobacterium tuberculosis. Nature of the test: In vito growth of Mycobacterium tuberculosis BC-437 strain after 6 weeks; - indicates no growth. It counts as functional, organism-based.
The test system of a further test is Aspergillus fumigatus. Description: Minimum inhibitory concentration against Aspergillus fumigatus. The class given is functional.
A further test has as its system Sporothrix schenckii. Nature of the test: Minimum inhibitory concentration against Sporothrix schenckii.
The next test deals with Candida parapsilosis. Nature of the test: Minimum inhibitory concentration against Candida parapsilosis. It counts as functional. Conditions: Lodderomyces parapsilosis.
A further test concerns Cryptococcus neoformans. Nature of the test: Minimum inhibitory concentration against Cryptococcus neoformans. The class given is functional.
Test [6] deals with Mycobacterium tuberculosis. Nature of the test: Minimum inhibitory concentration against Mycobacterium tuberculosis. It counts as functional.
In a further test the test system is Trichophyton benhamiae. Description: Minimum inhibitory concentration against Trichophyton mentagrophytes. It counts as functional, Arthroderma benhamiae.
A further test concerns Candida albicans. Nature of the test: Minimum inhibitory concentration against Candida albicans. The class given is functional.
The test system of test [7] is Mycobacterium tuberculosis. Nature of the test: In vito growth of Mycobacterium tuberculosis BC-248 strain after 6 weeks; + indicates 1-20 colonies. The class given is functional, organism-based.

`C[C@@H]1CN(c2c(F)c(N)c3c(=O)c(C(=O)O)cn(C4CC4)c3c2F)C[C@H](C)N1`: the Growth entry in test [1] was “No growth”; in test [2], “No growth”; in test [3], “No growth”; in [4] it was 1-20 colonies; in test [5], “No growth”.

Turning to `CCCCCCCCCCCCCCCCNCC(O)COCC1O[C@@H]2OC(C)(C)O[C@@H]2[C@H]2OC(C)(C)O[C@@H]12` (stereo partly specified), the MIC in the test on Aspergillus fumigatus was found to be 25 µg/mL (≈ 44.8 µM); in the test on Sporothrix schenckii it was 25 µg/mL (≈ 44.8 µM); against Candida parapsilosis, 25 µg/mL (≈ 44.8 µM); in the test with Cryptococcus neoformans it was 6.25 µg/mL (≈ 11.2 µM); in [6], 12.5 µg/mL (≈ 22.4 µM); against Trichophyton benhamiae, 12.5 µg/mL (≈ 22.4 µM). In addition, the lowest concentration to inhibit growth with Candida albicans (MIC) was 25 µg/mL (≈ 44.8 µM).

For `CC[C@@H](CO)NCCN[C@@H](CC)CO` [ETHAMBUTOL], in test [6], the MIC was 3.25 µg/mL (≈ 15.9 µM).

As for `CC1(C)O[C@H]2OC(COCC(O)CNCc3ccco3)[C@@H]3OC(C)(C)O[C@@H]3[C@H]2O1` (stereo partly specified), the MIC is greater than 50 µg/mL with Aspergillus fumigatus; greater than 50 µg/mL in the test on Sporothrix schenckii; greater than 50 µg/mL against Candida parapsilosis; 25 µg/mL (≈ 60.5 µM) in the test with Cryptococcus neoformans; greater than 50 µg/mL in [6]; 50 µg/mL (≈ 121 µM) against Trichophyton benhamiae. This molecule also registered an MIC against Candida albicans greater than 50 µg/mL.

As for `CC1(C)O[C@@H]2OC(COCC(O)CNCCCNCC(O)COCC3O[C@@H]4OC(C)(C)O[C@@H]4[C@H]4OC(C)(C)O[C@@H]34)[C@H]3OC(C)(C)O[C@H]3[C@@H]2O1` (stereo partly specified), the MIC was greater than 50 µg/mL in the test with Aspergillus fumigatus; greater than 50 µg/mL against Sporothrix schenckii; greater than 50 µg/mL against Candida parapsilosis; 25 µg/mL (≈ 35.4 µM) with Cryptococcus neoformans; greater than 50 µg/mL in [6]; 50 µg/mL (≈ 70.7 µM) with Trichophyton benhamiae. In addition, in the test on Candida albicans, the MIC is greater than 50 µg/mL.

Turning to `CC1(C)O[C@@H]2OC(COCC(O)CNCCCCCCCCCCCCNCC(O)COCC3O[C@@H]4OC(C)(C)O[C@@H]4[C@H]4OC(C)(C)O[C@@H]34)[C@H]3OC(C)(C)O[C@H]3[C@@H]2O1` (stereo partly specified), the MIC in the test on Aspergillus fumigatus is greater than 50 µg/mL; in the test on Sporothrix schenckii, greater than 50 µg/mL; against Candida parapsilosis, greater than 50 µg/mL; against Cryptococcus neoformans it was 12.5 µg/mL (≈ 15 µM); in test [6], 1.56 µg/mL (≈ 1.87 µM); in the test with Trichophyton benhamiae, 50 µg/mL (≈ 60 µM). The same molecule yielded a minimal inhibitory concentration (MIC) in the test on Candida albicans greater than 50 µg/mL. The Growth in test [7] is given as 1-20 colonies.

As to `CC1(C)O[C@H]2OC(COCC(O)CNCc3ccccc3)[C@@H]3OC(C)(C)O[C@@H]3[C@H]2O1` (stereo partly specified), the minimal inhibitory concentration (MIC) in the test with Aspergillus fumigatus was greater than 50 µg/mL; in the test with Sporothrix schenckii, greater than 50 µg/mL; against Candida parapsilosis, greater than 50 µg/mL; with Cryptococcus neoformans, 25 µg/mL (≈ 59 µM); in test [6], greater than 50 µg/mL; with Trichophyton benhamiae it was 50 µg/mL (≈ 118 µM). The molecule further came in with an MIC in the test with Candida albicans greater than 50 µg/mL.

`CC1(C)O[C@H]2OC(COCC(O)CN3CCCCC3)[C@@H]3OC(C)(C)O[C@@H]3[C@H]2O1` (stereo partly specified): the MIC in the test with Aspergillus fumigatus was greater than 50 µg/mL; against Sporothrix schenckii, greater than 50 µg/mL; in the test on Candida parapsilosis it was greater than 50 µg/mL; in the test with Cryptococcus neoformans it was 25 µg/mL (≈ 62.3 µM); in test [6], greater than 50 µg/mL; against Trichophyton benhamiae, 50 µg/mL (≈ 125 µM). In the test with Candida albicans, this molecule came in with a minimum inhibitory concentration (MIC) greater than 50 µg/mL.

As for `CC(=O)N1CCN(c2ccc(OC[C@H]3CO[C@](Cn4ccnc4)(c4ccc(Cl)cc4Cl)O3)cc2)CC1` [KETOCONAZOLE], the minimal inhibitory concentration (MIC) against Aspergillus fumigatus was found to be 0.25 µg/mL (≈ 0.47 µM); against Sporothrix schenckii, 0.5 µg/mL (≈ 0.941 µM); against Candida parapsilosis, 0.12 µg/mL (≈ 0.226 µM); in the test on Cryptococcus neoformans, 0.12 µg/mL (≈ 0.226 µM); in the test with Trichophyton benhamiae, 0.25 µg/mL (≈ 0.47 µM); in the test on Candida albicans, 0.001 µg/mL (≈ 0.00188 µM).

Consider `CCCCCCCC/C=C/CCCCCCCCNCC(O)COCC1O[C@@H]2OC(C)(C)O[C@@H]2[C@H]2OC(C)(C)O[C@@H]12` (stereo partly specified), for which the minimal inhibitory concentration (MIC) is 50 µg/mL (≈ 85.6 µM) in the test on Aspergillus fumigatus; 50 µg/mL (≈ 85.6 µM) with Sporothrix schenckii; greater than 50 µg/mL against Candida parapsilosis; 6.25 µg/mL (≈ 10.7 µM) in the test on Cryptococcus neoformans; 12.5 µg/mL (≈ 21.4 µM) in test [6]; 25 µg/mL (≈ 42.8 µM) with Trichophyton benhamiae. In the test with Candida albicans, this molecule had an MIC of 50 µg/mL (≈ 85.6 µM).

Turning to `CC1(C)O[C@@H]2OC(COCC(O)CNCCCCCCCCCCNCC(O)COCC3O[C@@H]4OC(C)(C)O[C@@H]4[C@H]4OC(C)(C)O[C@@H]34)[C@H]3OC(C)(C)O[C@H]3[C@@H]2O1` (stereo partly specified), the MIC against Aspergillus fumigatus is greater than 50 µg/mL; against Sporothrix schenckii, greater than 50 µg/mL; in the test on Candida parapsilosis, greater than 50 µg/mL; in the test on Cryptococcus neoformans, 12.5 µg/mL (≈ 15.5 µM); in test [6], greater than 50 µg/mL; in the test with Trichophyton benhamiae, 50 µg/mL (≈ 62.1 µM). For the same molecule, the MIC against Candida albicans is greater than 50 µg/mL.

Turning to `CC1(C)O[C@@H]2OC(COCC(O)CNCCCCCCCNCC(O)COCC3O[C@@H]4OC(C)(C)O[C@@H]4[C@H]4OC(C)(C)O[C@@H]34)[C@H]3OC(C)(C)O[C@H]3[C@@H]2O1` (stereo partly specified), the MIC in the test on Aspergillus fumigatus was greater than 50 µg/mL; with Sporothrix schenckii it was greater than 50 µg/mL; in the test with Candida parapsilosis it was greater than 50 µg/mL; in the test with Cryptococcus neoformans, 50 µg/mL (≈ 65.5 µM); in test [6] it was greater than 50 µg/mL; in the test on Trichophyton benhamiae, 50 µg/mL (≈ 65.5 µM). This molecule also came in with an MIC against Candida albicans greater than 50 µg/mL.

`CCCCCCCCCCCCNCC(O)COCC1O[C@@H]2OC(C)(C)O[C@@H]2[C@H]2OC(C)(C)O[C@@H]12` (stereo partly specified): the minimum inhibitory concentration (MIC) against Aspergillus fumigatus is 6.25 µg/mL (≈ 12.5 µM); in the test with Sporothrix schenckii, 6.25 µg/mL (≈ 12.5 µM); with Candida parapsilosis, 25 µg/mL (≈ 49.8 µM); against Cryptococcus neoformans, 1.56 µg/mL (≈ 3.11 µM); in [6] it was 12.5 µg/mL (≈ 24.9 µM); in the test on Trichophyton benhamiae, 6.25 µg/mL (≈ 12.5 µM). The molecule further showed an MIC against Candida albicans of 12.5 µg/mL (≈ 24.9 µM).

Consider `CC1(C)O[C@@H]2OC(COCC(O)CNCCCCCCCCCNCC(O)COCC3O[C@@H]4OC(C)(C)O[C@@H]4[C@H]4OC(C)(C)O[C@@H]34)[C@H]3OC(C)(C)O[C@H]3[C@@H]2O1` (stereo partly specified), for which the MIC against Aspergillus fumigatus is greater than 50 µg/mL; against Sporothrix schenckii, greater than 50 µg/mL; against Candida parapsilosis, greater than 50 µg/mL; against Cryptococcus neoformans, 25 µg/mL (≈ 31.6 µM); in [6], greater than 50 µg/mL; with Trichophyton benhamiae it was 50 µg/mL (≈ 63.2 µM). Moreover, the MIC in the test with Candida albicans was greater than 50 µg/mL.

As for `CC1(C)O[C@H]2OC(COCC(O)CN3CCN(c4cccc(Cl)n4)CC3)[C@@H]3OC(C)(C)O[C@@H]3[C@H]2O1` (stereo partly specified), the MIC was greater than 50 µg/mL against Aspergillus fumigatus; greater than 50 µg/mL against Sporothrix schenckii; greater than 50 µg/mL in the test on Candida parapsilosis; 12.5 µg/mL (≈ 24.3 µM) against Cryptococcus neoformans; greater than 50 µg/mL in test [6]; 25 µg/mL (≈ 48.6 µM) with Trichophyton benhamiae. This molecule also came in with an MIC with Candida albicans greater than 50 µg/mL.

As to `CC1(C)O[C@H]2OC(COCC(O)CN3CCOCC3)[C@@H]3OC(C)(C)O[C@@H]3[C@H]2O1` (stereo partly specified), the MIC in the test with Aspergillus fumigatus was greater than 50 µg/mL; with Sporothrix schenckii, greater than 50 µg/mL; in the test with Candida parapsilosis, greater than 50 µg/mL; in the test on Cryptococcus neoformans it was 25 µg/mL (≈ 62 µM); in [6], greater than 50 µg/mL; with Trichophyton benhamiae, 50 µg/mL (≈ 124 µM). The molecule further came in with an MIC against Candida albicans greater than 50 µg/mL.

In the case of `CC1(C)O[C@H]2OC(COCC(O)CN3CCCC3)[C@@H]3OC(C)(C)O[C@@H]3[C@H]2O1` (stereo partly specified), the MIC against Aspergillus fumigatus is greater than 50 µg/mL; in the test on Sporothrix schenckii, greater than 50 µg/mL; with Candida parapsilosis it was greater than 50 µg/mL; in the test with Cryptococcus neoformans, 25 µg/mL (≈ 64.5 µM); in [6], greater than 50 µg/mL; against Trichophyton benhamiae, 50 µg/mL (≈ 129 µM). The molecule further showed an MIC in the test with Candida albicans greater than 50 µg/mL.
